Measurements from article PMC7004151, “Synthesis and Structure‐Activity Relationships of N‐(4‐Benzamidino)‐Oxazolidinones: Potent and Selective Inhibitors of Kallikrein‐Related Peptidase 6” (Chemmedchem, 2019).
Where two headings read alike, the source gives them in different places.

Experiments:
KLK6 [1] = molecular target: T1, KLK6 (Homo sapiens, UniProt Q92876); experiment: SPR binding assay (Biacore T200, KLK6 immobilized on CM5 chip); settings: read-out: KLK6 pKD (converted)
Method: High Throughput Screen: The European Lead Factory library of ∼350,000 compounds was used for high throughput screening at the Pivot Park Screening Center facilities in Oss, The Netherlands. HighRes Biosolutions robotic infrastructure using Cellario software was programmed to perform screening of 281 1536‐well plates. Using the primary KLK6 fluorescent intensity (FI) assay (see below), 7794 compounds having a Z‐score≤‐4 were selected for further follow‐up. An additional set of compounds was added based on Bayesian modeling to include potential false negatives in the hit confirmation. […] Upon testing of these compounds using SPR and LC‐MS, a qualified hit list (QHL) was registered containing 50 compounds. For SPR, Biacore T200 was used and KLK6 was immobilized onto a CM5 chip. 226 test compounds were screened at 4 concentrations: 20, 4, 0.8 and 0.16 μM in running buffer: 50 mM Tris‐HCl, 1 mM EDTA pH 7.5, 150 mM NaCl, 0.05 % Tween 20, 3 % DMSO at 25 °C. Control injections of 5 μM 1 were used throughout the screen to ensure that KLK6 was stable and had not been blocked by potential irreversible binders/denaturants. An 8 point 1 in 3 dilution series of 1 (50 μM to 0.02 μM) was also applied at the beginning and end of each screening day.

KLK6 [2] = molecular target: T1, KLK6; experiment: KLK6 enzymatic inhibition assay (fluorogenic Boc-Phe-Ser-Arg-AMC substrate); format: biochemical; set-up: made in house; settings: for IC50: read-out: KLK6 pIC50 (converted)
Method: Using our previously published KLK6 assay format,21 we performed a HTS with the European Lead Factory (ELF),22 and tested ∼350,000 substances at 10 μM for their ability to reduce KLK6‐catalyzed hydrolysis of the fluorogenic Boc‐Phe‐Ser‐Arg‐AMC peptide.
High Throughput Screen: The European Lead Factory library of ∼350,000 compounds was used for high throughput screening at the Pivot Park Screening Center facilities in Oss, The Netherlands. […] For SPR, Biacore T200 was used and KLK6 was immobilized onto a CM5 chip. […] An 8 point 1 in 3 dilution series of 1 (50 μM to 0.02 μM) was also applied at the beginning and end of each screening day.
Enzyme inhibition assays: All chemicals were purchased from Sigma Aldrich (Gillingham, UK) unless otherwise stated.

KLK7 = molecular target: T2, KLK7 (Homo sapiens, UniProt P49862); experiment: KLK7 enzyme inhibition assay; format: biochemical; settings: read-out: KLK7 pIC50 (converted)
T2 construct: purchased 2B scientific
Method: (§1) Enzyme inhibition assays: All chemicals were purchased from Sigma Aldrich (Gillingham, UK) unless otherwise stated. All experiments were conducted in 384 well black, low volume microplates (Greiner 784076) with a final volume of 20 μL and compounds were dispensed into assay plates using an ECHO 550 acoustic dispenser (Labcyte). KLK6 (5 nM) (prepared as in ref. 21) was incubated with test compounds for 30 min at room temperature in assay buffer (50 mM Tris, pH 7.5, 150 mM NaCl, 1 mM EDTA, 0.05 % tween 20, 0.1 % bovine serum albumin (BSA), 1 mM dithiothreitol (DTT)) before the reaction was started by addition of 20 μM Boc‐Phe‐Ser‐Arg‐AMC substrate (Bachem). Fluorescence intensity was read at ex/em 355/460 following incubation for 2 h in the dark at room temperature.
(§2) Assays using KLK7 and KLK8 (2B scientific) were conducted in the same manner as for KLK6 with the following exceptions. Both KLK7 and KLK8 required activation before assaying. KLK7 was combined with an equal volume of 20 μg/ml thermolysin (R&D systems) in activation buffer (50 mM Tris, pH 7.5, 10 mM CaCl2, 150 mM NaCl and 0.05 % Brij‐L23) and incubated at 37 °C for 2 h, the reaction was stopped with the addition of 100 mM EDTA in stop solution (50 mM Tris, 150 mM NaCl, pH 8.5). KLK8 was combined with an equal volume of 0.4 mU/mL lysyl endopeptidase (Alpha laboratories) in activation buffer (50 mM Tris, pH 8.0) and incubated at 37 °C for 30 min. Activated KLK7 (40 nM) and KLK8 (25 nM) were assayed with 40 μM Mca‐RPKPVE‐Nval‐WRK(Dnp)‐NH2 fluorogenic MMP substrate (R&D systems) and 25 μM Boc‐V‐P‐R‐AMC substrate (R&D systems), respectively.

KLK4 = KLK4 (Homo sapiens, UniProt Q9Y5K2); experiment: KLK4 inhibition (selectivity); format: biochemical; settings: read-out: KLK4 pIC50 (converted)
Excerpt: Table 3 Activity of synthesized inhibitors against KLK6 and related proteases. | column: KLK4^a

KLK8 = molecular target: T3, KLK8 (Homo sapiens, UniProt O60259); experiment: KLK8 enzyme inhibition assay; format: biochemical; settings: read-out: KLK8 pIC50 (converted)
T3 construct: purchased 2B scientific
T3 sequence (O60259 33-260): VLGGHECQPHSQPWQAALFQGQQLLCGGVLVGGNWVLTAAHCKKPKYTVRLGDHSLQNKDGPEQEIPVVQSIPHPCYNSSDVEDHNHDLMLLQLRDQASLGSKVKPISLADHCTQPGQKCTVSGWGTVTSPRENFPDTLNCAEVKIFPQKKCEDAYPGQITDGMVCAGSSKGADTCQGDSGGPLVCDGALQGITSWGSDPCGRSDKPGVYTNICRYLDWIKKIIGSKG
Method: as §1, §2

Human Factor Xa = molecular target: T4, Human Factor Xa (Homo sapiens, UniProt P00742); experiment: Factor Xa enzyme inhibition assay; format: biochemical; settings: read-out: Factor Xa pIC50 (converted)
T4 construct: Human Factor Xa was purchased from Enzo Life Sciences; purchased Enzo Life Sciences
Method: (§3) Human thrombin was purchased from Biopur. Human trypsin was purchased from Polymun Scientific. Human Factor Xa was purchased from Enzo Life Sciences. Thrombin (20 nM), trypsin (0.000015 %) or Factor Xa (10 nM) were assayed in a similar manner to the KLKs but were incubated with compound for 20 min at room temperature in assay buffer (50 mM Tris HCl, pH 7.6, 100 mM NaCl, 1 mg/ml CHAPS, 0.05 % bovine serum albumin (BSA), 1 mM dithiothreitol (DTT)) before the addition of 5 μM, 2.5 μM or 1.5 μM Rhodamine 110 substrate (Cambridge bioscience ltd) respectively. Fluorescence intensity was then read at ex/em 485/535 following incubation for 1 h at room temperature (thrombin and factor Xa) or 20 min (trypsin).

Human trypsin = molecular target: T5, Human trypsin (Homo sapiens, UniProt P07477); experiment: Trypsin enzyme inhibition assay; format: biochemical; settings: read-out: Trypsin pIC50 (converted)
T5 construct: purchased Polymun Scientific
Method: Human thrombin was purchased from Biopur. Human trypsin was purchased from Polymun Scientific. Human Factor Xa was purchased from Enzo Life Sciences. […] Fluorescence intensity was then read at ex/em 485/535 following incubation for 1 h at room temperature (thrombin and factor Xa) or 20 min (trypsin).

Human thrombin = molecular target: T6, Human thrombin (Homo sapiens, UniProt P00734); experiment: Thrombin enzyme inhibition assay; format: biochemical; settings: read-out: Thrombin pIC50 (converted)
T6 construct: Human thrombin was purchased from Biopur; purchased Biopur
Method: as §3

KLK6 [3] = settings: cited from earlier work
HCT116 cells [4] = experiment: HCT116 cell growth and viability; format: cell-based; settings: at the tested concentrations (data not shown)
Excerpt: We have previously shown that knockdown of KLK6 reduces migration and invasion of HCT116 cells in vitro.13 In order to test whether this effect could be recapitulated with small molecule KLK6 inhibitors, we measured the ability of 32 to reduce invasion of HCT116 cells. […] HCT116 cell growth and viability was not altered upon treatment with compounds 9 and 32 at the tested concentrations (data not shown).

HCT116 cells [5] = experiment: HCT116 Matrigel invasion assay; format: cell-based; settings: after 24 h; 9 at multiple concentrations; 32 at 50 nM and 500 nM
Method: Figure 5 HCT116 cells were treated with 9 or 32 at the indicated concentrations and plated on Matrigel®‐coated filters. The upper chamber contained serum‐free medium, while the lower chamber contained 10 % fetal bovine serum. After 24 h, the number of invading cells was measured optically. (A) This figure is one representative example of four biological replicates, each with similar outcomes. Error bars are SEM. Technical replicates: DMSO and 9 at 5 nM (n=3); 9 at 50 and 500 nM and 32 at all concentrations (n=6). Statistical significance was calculated using an unpaired two‐tailed t‐test. n.s=p≥0.05; **=p<0.01; ***=p<0.001. (B) Representative images (Scale bar, […]) of stained invaded cells outside of the inserts 24 h hours after treatment with 9, 32, or DMSO solvent control at the indicated concentrations. Phase contrast images were taken with EVOS FL Cell imagine system FL Auto microscope (Bio‐Rad).
Invasion assay: The HCT116 colorectal adenocarcinoma cell line (ATCC® CCL‐247™) was maintained in Dulbecco's Modified Eagle Medium (DMEM) with […] glucose, L‐glutamine w/o sodium pyruvate, supplemented with 10 % FBS and 1 % penicillin/streptomycin. […] The samples were transferred to a new 96 well plate and read at 560 nm on a Synergy 2 Multi‐Detection Microplate Reader (Bio‐Tek Instruments, Inc., Winooski, VT).

[6] = HTS library sample, primary dose-response enzymatic inhibition assay
[7] = resynthesized stereoisomers, enzymatic inhibition assay (Table 2)
[8] = synthesized inhibitors (Table 3), 8.6 = assay limit

T2 sequence (P49862 30-253, species assumed): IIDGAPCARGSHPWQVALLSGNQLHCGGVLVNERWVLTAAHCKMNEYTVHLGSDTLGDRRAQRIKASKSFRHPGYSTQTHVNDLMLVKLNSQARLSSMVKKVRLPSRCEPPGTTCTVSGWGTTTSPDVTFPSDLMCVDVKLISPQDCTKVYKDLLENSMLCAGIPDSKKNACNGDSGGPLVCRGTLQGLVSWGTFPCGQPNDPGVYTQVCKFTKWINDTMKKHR
T4 sequence (P00742 235-488 limits assumed): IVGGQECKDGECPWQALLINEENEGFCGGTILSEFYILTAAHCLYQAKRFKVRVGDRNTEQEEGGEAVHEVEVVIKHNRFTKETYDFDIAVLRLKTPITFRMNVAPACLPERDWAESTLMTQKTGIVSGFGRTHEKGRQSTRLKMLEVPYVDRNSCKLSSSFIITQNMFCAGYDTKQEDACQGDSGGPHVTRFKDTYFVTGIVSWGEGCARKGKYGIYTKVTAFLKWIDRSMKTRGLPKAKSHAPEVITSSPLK
T4 sequence (P00742 41-179 partner limits assumed): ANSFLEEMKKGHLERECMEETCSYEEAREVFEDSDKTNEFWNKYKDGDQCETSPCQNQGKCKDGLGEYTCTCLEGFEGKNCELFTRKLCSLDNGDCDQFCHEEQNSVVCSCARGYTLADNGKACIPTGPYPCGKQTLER
Chain of KLK4 (Q9Y5K2 31-254, species assumed): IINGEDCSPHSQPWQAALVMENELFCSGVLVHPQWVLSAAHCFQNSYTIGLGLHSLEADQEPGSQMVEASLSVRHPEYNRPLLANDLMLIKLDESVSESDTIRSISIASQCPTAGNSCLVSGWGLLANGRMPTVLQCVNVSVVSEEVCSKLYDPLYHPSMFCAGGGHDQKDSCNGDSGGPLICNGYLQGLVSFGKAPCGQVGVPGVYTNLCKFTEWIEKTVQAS

SMILES: N=C(N)c1ccc(N2CC(CC(=O)NCc3ccccc3C(F)(F)F)OC2=O)cc1 (stereo not drawn) [Compound 6]
- Kd (KLK6 [1]): 12.6 µM
- IC50 (KLK6 [2]; [6]): 10 µM

SMILES: CCOC(=O)C[S+]([O-])CC1CN(c2ccc(C(=N)N)cc2)C(=O)O1 (stereo not drawn) [Compound 7]
- Kd (KLK6 [1]): 20 µM
- IC50 (KLK6 [2]; [6]): 1.58 µM

SMILES: COc1cccc([C@H](C)NC(=O)[C@H]2CN(c3ccc(C(=N)N)cc3)C(=O)O2)c1 [Compound 5, (5R)‐3‐(4‐carbamimidoylphenyl)‐N‐[(S)‐1‐(3‐methoxyphenyl)ethyl]‐2‐oxooxazolidine‐5‐carboxamide]
- IC50 (KLK7): > 20 µM
- Kd (KLK6 [1]): 0.1 µM
- IC50 (KLK6 [2]; [6]): 0.0631 µM
- LipE (KLK6 [2]; LipE=pIC50 – logP (KLK6 pIC50, ALogP)): 4.79
- IC50 (KLK6 [2]; [7]): 0.251 µM
- IC50 (KLK6 [2]; [8]): 0.251 µM
- IC50 (KLK4): 7.94 µM
- IC50 (KLK8): 10 µM
- IC50 (Human Factor Xa): > 20 µM
- IC50 (Human trypsin): 5.01 µM
- IC50 (Human thrombin): > 20 µM

SMILES: NCc1ccc(NC(=O)c2c([O-])ccc[n+]2Cc2nccn2Cc2ccccc2)cc1 [Compound 1]
- IC50 (KLK6 [3]; published KLK6 inhibitors ref 18): 1.8 µM

SMILES: CCN(CC)C(=O)c1cccc(OCC2CN(c3ccc(C(=N)N)cc3)C(=O)O2)c1 (stereo not drawn) [Compound 8]
- Kd (KLK6 [1]): 7.94 µM
- IC50 (KLK6 [2]; [6]): 7.94 µM

SMILES: COc1cccc([C@@H](C)NC(=O)[C@@H]2CN(c3ccc(C(=N)N)cc3)C(=O)O2)c1 [Compound 9]
- IC50 (KLK6 [2]; [7]): > 20 µM
- HCT116 cell growth and viability (HCT116 cells [4]): not altered
- invasion of HCT116 cells (HCT116 cells [5]): no significant effect

SMILES: C[C@H](NC(=O)[C@H]1CN(c2ccc(C(=N)N)cc2)C(=O)O1)c1ccc2ccccc2c1 [Compound 30, (5R)‐3‐(4‐carbamimidoylphenyl)‐N‐[(1S)‐1‐(2‐naphthyl)ethyl]‐2‐oxo‐oxazolidine‐5‐carboxamide]
- IC50 (KLK7): > 20 µM
- KLK6 potency loss (KLK6 [2]; relative to 29): 10 fold
- IC50 (KLK6 [2]; [8]): 0.1 µM
- IC50 (KLK4): 3.16 µM
- IC50 (KLK8): 10 µM
- IC50 (Human Factor Xa): > 20 µM
- IC50 (Human trypsin): 3.98 µM
- IC50 (Human thrombin): > 20 µM

SMILES: O=C(Oc1cc(Cl)ccc1Cl)c1cc2cc(Cl)ccc2oc1=O [Compound 4]
- kinact/Ki (KLK6 [3]; covalent coumarin-based suicide inhibitor ref 20): 131 ± 13 M⁻¹ s⁻¹
